US20240025862A1, “SUBSTITUTED N-PHENYLURACILS AND SALTS THEREOF, AND USE THEREOF AS HERBICIDAL ACTIVE SUBSTANCES” (Bayer Aktiengesellschaft, priority 2020, published 2024)

Assays:
Type in all cases: in vivo
Viola tricolor (VIOTR) = assay: Post-emergence herbicidal action, greenhouse pot test
Summary of the method: (§1)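 Activity was scored by eye about 3 weeks after treatment against untreated plants, where 100% means dead plants and 0% means no difference. Plants at the one-leaf stage received a foliar spray of WP or EC formulations in water plus 0.5% additive (600 l/ha, up to 20 g/ha). Plants were grown in sandy loam pots in a greenhouse for 2–3 weeks before spraying.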

[1] = test system: Abutilon theophrasti (ABUTH); assay: as above; details: rated visually after about 3 weeks vs untreated controls, 100% = plants have died
Summary of the method: as §1

[2] = test system: Pharbitis purpurea (PHBPU); assay: as above; details: dosage 5 g/ha
Summary of the method: as §1

[3] = test system: Polygonum convolvulus (POLCO); assay: as above; details: dosage 5 g/ha
Summary of the method: as §1

[4] = test system: Amaranthus retroflexus (AMARE); assay: as above; details: rated visually after about 3 weeks vs untreated controls, 100% = plants have died
Summary of the method: as §1

Veronica persica (VERPE) [5] = assay: as above
Summary of the method: as §1

[6] = test system: Abutilon theophrasti (ABUTH); assay: Pre-emergence herbicidal action, greenhouse pot test; details: scored after about 3 weeks
Excerpt: (§2) Seeds of monocotyledonous and dicotyledonous weed plants and crop plants were placed in plastic or organic planting pots and covered with soil. The compounds of the invention, formulated in the form of wettable powders (WP) or as emulsion concentrates (EC), were then applied to the surface of the covering soil as aqueous suspension or emulsion with addition of 0.5% additive at a water application rate equivalent to 600 l/ha (converted). After the treatment, the pots were placed in a greenhouse and kept under good growth conditions for the test plants. After about 3 weeks, the effect of the preparations was scored visually in comparison with untreated controls as percentages. For example, 100% activity=the plants have died, 0% activity=like control plants.
(§3) Tables B1 to B10 below show the effects of selected compounds of the general formula (I) according to Tables I.1 to I.33 on various harmful plants and at an application rate corresponding to 80 g/ha and less, which were obtained by the experimental method specified above. The appendices “a”, “b” and “c” give differentiation by different dosage with otherwise the same harmful plants tested.

[7] = test system: Pharbitis purpurea (PHBPU); assay: as above; details: scored after about 3 weeks
Excerpt: as §2, §3

[8] = test system: Alopecurus myosuroides (ALOMY); assay: as above; details: scored after about 3 weeks
Excerpt: as §2, §3

Lolium rigidum (LOLRI) = assay: as above; details: scored after about 3 weeks
Excerpt: as §2, §3

[9] = test system: Digitaria sanguinalis (DIGSA); assay: as above; details: scored after about 3 weeks
Excerpt: as §2, §3

[10] = test system: Matricaria inodora (MATIN); assay: as above; details: scored after about 3 weeks
Excerpt: as §2, §3

Avena fatua (AVEFA) = assay: as above; details: 80 g/ha, scored after about 3 weeks
Excerpt: as §2, §3

[11] = test system: Echinochloa crus-galli (ECHCG); assay: as above; details: scored after about 3 weeks
Excerpt: as §2, §3

[12] = test system: Amaranthus retroflexus (AMARE); assay: as above; details: scored after about 3 weeks
Excerpt: as §2, §3

Veronica persica (VERPE) [13] = assay: as above; details: scored after about 3 weeks
Excerpt: as §2, §3

[14] = test system: Triticum aestivum (TRZAS); assay: Post-emergence crop plant compatibility, greenhouse pot test; details: 1.25 g/ha, vs untreated controls
Summary of the method: (§4)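 Visual % damage vs untreated controls, scored ~3 weeks post-spray (100% = dead, 0% = as control). Plants in sandy loam, greenhouse; treated at one-leaf stage, 2–3 wk after sowing. WP/EC, aqueous, 0.5% additive, 600 l/ha. Suffixes a/b/c = different dosages.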

Brassica napus (BRSNW) = assay: as above; details: 1.25 g/ha, vs untreated controls
Summary of the method: as §4

[15] = test system: Alopecurus myosuroides (ALOMY); assay: Post-emergence herbicidal action, greenhouse pot test (also comparative test C); details: rated visually after about 3 weeks vs untreated controls, 100% = plants have died
Summary of the method: (§5)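 Greenhouse pot plants in sandy loam were sprayed post-emergence at the one-leaf stage (2–3 weeks after sowing) with WP or EC formulations plus 0.5% additive at 600 l/ha water. Activity was rated visually after about 3 weeks versus untreated controls (100% = dead, 0% = like control); rates were 20 g/ha or less, and 5 g/ha or less in the comparative test.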

[16] = test system: Matricaria inodora (MATIN); assay: as above
Summary of the method: as §5

[17] = test system: Echinochloa crus-galli (ECHCG); assay: as above; details: dosage 5 g/ha
Summary of the method: as §5

Setaria viridis (SETVI) = assay: as above
Summary of the method: as §5

Glycine max (GLXMA) = assay: Pre-emergence crop plant compatibility, greenhouse pot test; details: 20 g/ha
Excerpt: as §2
(§6) The observed effects on selected crop plants are reported here in comparison to the untreated controls (values in %).

Zea mays (ZEAMX) = assay: as above; details: 20 g/ha
Excerpt: as §2, §6

Oryza sativa (ORYSA) = assay: Post-emergence crop plant compatibility, greenhouse pot test (also comparative test C); details: vs untreated controls
Summary of the method: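 Visual damage versus untreated plants (0% = like control, 100% = plants died) was scored about 3 weeks after a post-emergence spray in greenhouse pots. Treatment: one-leaf stage, WP or EC in water at 600 l/ha with 0.5% additive; a/b/c mark different dosages on the same crop.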

COCCOCCOC(=O)COc1ccccc1Oc1cc(-n2c(=O)cc(C(F)(F)F)n(C)c2=O)c(F)cc1Cl [I.7-23]
90%: Post-emergence action against VERPE (Veronica persica (VERPE) [5]; 1.25 g/ha) | Pre-emergence action against ALOMY in % ([8]; 20 g/ha) | Pre-emergence action against LOLRI in % (Lolium rigidum (LOLRI); 20 g/ha) | Pre-emergence action against AVEFA in % (Avena fatua (AVEFA)) | Pre-emergence action against ECHCG in % ([11]; 80 g/ha) | Post-emergence action against MATIN in % ([16]; dosage 1.25 g/ha)
20%: Post-emergence action against BRSNW (crop plant compatibility) (Brassica napus (BRSNW)) | Pre-emergence action against ZEAMX in % (Zea mays (ZEAMX)) | Post-emergence action against ORYSA (crop plant compatibility) (Oryza sativa (ORYSA); 5 g/ha)
10%: Post-emergence action against TRZAS (crop plant compatibility) [14] | Pre-emergence action against GLXMA in % (Glycine max (GLXMA)) | Post-emergence action against ORYSA (crop plant compatibility) (Oryza sativa (ORYSA); 1.25 g/ha)
80%: Pre-emergence action against ECHCG in % ([11]; 20 g/ha) | Post-emergence action at 1.25 g/ha against ALOMY in % ([15]; 1.25 g/ha)
100%: Post-emergence action against VIOTR (Viola tricolor (VIOTR); 1.25 g/ha) | Post-emergence action against VIOTR (Viola tricolor (VIOTR); 5 g/ha) | Post-emergence action at 1.25 g/ha against ABUTH in % ([1]; 1.25 g/ha) | Post-emergence action at 5 g/ha against ABUTH in % ([1]; 5 g/ha) | Post-emergence action against PHBPU in % [2] | Post-emergence action against POLCO in % [3] | Post-emergence action at 1.25 g/ha against AMARE in % ([4]; 1.25 g/ha) | Post-emergence action at 5 g/ha against AMARE in % ([4]; 5 g/ha) | Post-emergence action against VERPE (Veronica persica (VERPE) [5]; 5 g/ha) | Pre-emergence action against ABUTH in % ([6]; 20 g/ha) | Pre-emergence action against ABUTH in % ([6]; 80 g/ha) | Pre-emergence action against PHBPU in % ([7]; 20 g/ha) | Pre-emergence action against PHBPU in % ([7]; 80 g/ha) | Pre-emergence action against ALOMY in % ([8]; 80 g/ha) | Pre-emergence action against LOLRI in % (Lolium rigidum (LOLRI); 80 g/ha) | Pre-emergence action against DIGSA in % ([9]; 20 g/ha) | Pre-emergence action against DIGSA in % ([9]; 80 g/ha) | Pre-emergence action against MATIN in % ([10]; 20 g/ha) | Pre-emergence action against MATIN in % ([10]; 80 g/ha) | Pre-emergence action against AMARE in % ([12]; 20 g/ha) | Pre-emergence action against AMARE in % ([12]; 80 g/ha) | Pre-emergence action against VERPE in % (Veronica persica (VERPE) [13]; 20 g/ha) | Pre-emergence action against VERPE in % (Veronica persica (VERPE) [13]; 80 g/ha) | Post-emergence action at 5 g/ha against ALOMY in % ([15]; 5 g/ha) | Post-emergence action against MATIN in % ([16]; dosage 5 g/ha) | Post-emergence action against ECHCG in % [17] | Post-emergence action against SETVI in % (Setaria viridis (SETVI); dosage 1.25 g/ha) | Post-emergence action against SETVI in % (Setaria viridis (SETVI); dosage 5 g/ha)
